According to US11459338B2, “Heterocyclic compounds as PRMT5 inhibitors” (JUBILANT EPISCRIBE LLC, priority 2018, dated 2022):
Where two headings read alike, the source gives them in different places.

What was measured:
Z-138 cells = assay: Z-138 long term proliferation assay (Cell Titer Glo); assay type: cell-based; conditions: Homo sapiens; for GI50: 192 h, Z-138 cells, cell viability, day 8, read-out: PRMT5 Z138 GI50 Day 8 μM; for IC50: Z-138, 192 h, summary of Table 1, read-out: IC50 value (all the three assays): Z138 GI50 Day 8
Outline: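 Z-138 cells exposed to ten-point 3-fold dilutions (top 10 μM, 0.3% DMSO) for 96 h at 37° C., 5% CO2, then re-dosed for four more days.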

[1] = tested on: Symmetric di-methyl arginine in Z-138 cells; assay: Z-138 methylation assay, ELISA for detection of symmetric di-methyl arginine; assay type: cell-based; conditions: Homo sapiens
Experimental: General reagents. […] Iscove's Modified Dulbecco's Medium (IMDM), Horse serum, penicillin-streptomycin, PBS and TMB-ELISA substrate solution were purchased from ThermoFisher Scientific. Symmetric di-methyl arginine antibody was purchased from Cell Signaling Technologies.Anti-SNRPD3/SmD3 antibody was purchased from Sigma-Aldrich.
ELISA for detection of Symmetric di-methyl arginine. […] A compound source plate was prepared by performing ten-point 3-fold dilution in DMSO, such that the final top concentration of the compound was 10 μM, and DMSO was 0.3%. The total volume of compounds added was 20 μL. The cells were incubated for 96 h at 37° C., 5% CO2. Z-138 cells were directly lysed in media with 3× Lysis Buffer (1×: 10 mM HEPES pH7.9, 5 mM MgCl2, 1M NaCl, 0.25M Sucrose, 1% Triton X-100, 1 mM PMSF, Protease & Phosphatase inhibitors). […] Plates were incubated at room temperature for a minimum of 3 h and then washed with PBS-Tween 20 (0.05%). The plates were blocked with 5% BSA at room temperature for 1 h, washed with PBS-Tween 20 and incubated with primary antibody at 4 C overnight.

PRMT5/MEP50 = target: T1, PRMT5/MEP50 (Homo sapiens, UniProt O14744); assay: PRMT5/MEP50 enzyme assay on peptide substrates (3H-SAM Flashplate); assay type: biochemical; conditions: PRMT5/MEP50 10 nM, H4 1-15aa peptide 100 nM, 3H-SAM 1 μM
T1 construct: Full-length human PRMT5 (NP_006100)
T1 sequence (O14744 whole entry): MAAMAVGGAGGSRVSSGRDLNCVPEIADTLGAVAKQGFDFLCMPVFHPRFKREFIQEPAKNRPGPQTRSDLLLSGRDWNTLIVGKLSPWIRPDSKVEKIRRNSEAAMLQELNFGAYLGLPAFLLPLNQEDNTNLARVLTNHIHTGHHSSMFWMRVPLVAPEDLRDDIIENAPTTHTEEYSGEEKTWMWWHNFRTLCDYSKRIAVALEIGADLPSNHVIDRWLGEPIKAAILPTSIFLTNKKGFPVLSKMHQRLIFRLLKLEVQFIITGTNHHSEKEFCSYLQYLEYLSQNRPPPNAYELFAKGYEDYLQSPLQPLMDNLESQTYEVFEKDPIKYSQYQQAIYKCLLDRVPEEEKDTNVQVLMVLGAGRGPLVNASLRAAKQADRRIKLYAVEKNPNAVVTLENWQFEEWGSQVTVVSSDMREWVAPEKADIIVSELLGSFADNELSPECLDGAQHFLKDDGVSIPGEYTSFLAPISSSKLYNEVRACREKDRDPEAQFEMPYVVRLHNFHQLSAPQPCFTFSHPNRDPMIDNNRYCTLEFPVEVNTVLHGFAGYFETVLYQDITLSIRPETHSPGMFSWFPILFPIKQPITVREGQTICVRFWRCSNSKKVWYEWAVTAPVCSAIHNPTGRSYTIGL
T1 sequence (Q9BQA1 whole entry partner): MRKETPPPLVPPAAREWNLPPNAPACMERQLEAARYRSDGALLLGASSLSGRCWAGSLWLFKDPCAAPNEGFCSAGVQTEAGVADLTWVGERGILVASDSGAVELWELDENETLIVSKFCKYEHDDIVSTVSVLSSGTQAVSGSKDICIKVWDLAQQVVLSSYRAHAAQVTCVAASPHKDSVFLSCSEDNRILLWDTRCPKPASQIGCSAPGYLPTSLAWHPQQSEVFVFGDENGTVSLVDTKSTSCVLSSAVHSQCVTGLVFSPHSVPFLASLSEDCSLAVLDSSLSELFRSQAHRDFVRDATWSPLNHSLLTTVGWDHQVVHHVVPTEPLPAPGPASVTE

[2] = Z-138, 96 h, summary of Table 1, read-out: IC50 value (all the three assays): Z138 SDMA ELISA Day 4
[3] = Z-138 cells, 96 h (day 4), read-out: PRMT5 Z138 SDMA ELISA Day 4 μM

| SMILES | GI50 (Z-138 cells) [µM] | IC50 (Z-138 cells) [µM] | IC50 [1, 2] [µM] | IC50 [1, 3] [µM] | IC50 (PRMT5/MEP50) [µM] |
| --- | --- | --- | --- | --- | --- |
| CC(=O)N1CC(n2cc(-c3ccc4nc(C(=O)NC[C@H](O)CN5CCc6ccccc6C5)cn4c3)cn2)C1 [Example 23, (S)-6-(1-(1-acetylazetidin-3-yl)-1H-pyrazol-4-yl)-N-(3-(3,4-dihydroisoquinolin-2(1H)-yl)-2-hydroxypropyl)imidazo[1,2-a]pyridine-2-carboxamide] | 0.01 to 1 | 0.01 to 1 | 0.01 to 1 | 0.01 to 1 | 0.01 to 1 |
| O=C(NC[C@H](O)CN1CCc2ccccc2C1)c1cn2c(n1)COC(c1ccc(F)cc1)C2 (stereo partly drawn) [Example 116, N—((S)-3-(3,4-dihydroisoquinolin-2(1H)-yl)-2-hydroxypropyl)-6-(4-fluorophenyl)-5,6-dihydro-8H-imidazo[2,1-c][1,4]oxazine-2-carboxamide] | 0.01 to 1 | 0.01 to 1 | 0.01 to 1 | 0.01 to 1 | 0.01 to 1 |
| Cc1ccc2nc(C(=O)NCC(O)CN3CCc4ccccc4C3)cn2c1 (stereo not drawn) [Example 2, N-(3-(3,4-dihydroisoquinolin-2(1H)-yl)-2-hydroxypropyl)-6-methylimidazo[1,2-a]pyridine-2-carboxamide] | 0.01 to 1 | 0.01 to 1 | 0.01 to 1 | 0.01 to 1 | 0.01 to 1 |
| Cn1ccc(-c2cn3cc(C(=O)NC[C@H](O)CN4CCc5ccccc5C4)nc3cn2)cc1=O [Example 47, (S)—N-(3-(3,4-dihydroisoquinolin-2(1H)-yl)-2-hydroxypropyl)-6-(1-methyl-2-oxo-1,2-dihydropyridin-4-yl)imidazo[1,2-a]pyrazine-2-carboxamide] | 0.01 to 1 | 0.01 to 1 | 0.01 to 1 | 0.01 to 1 | 0.01 to 1 |
| CC(C)c1ccc2nc(C(=O)NCC(O)CN3CCc4ccccc4C3)cn2c1 (stereo in doubt) [Example 12, (S)—N-(3-(3,4-dihydroisoquinolin-2(1H)-yl)-2-hydroxypropyl)-6-isopropylimidazo [1,2-a]pyridine-2-carboxamide] | 0.01 to 1 | 0.01 to 1 | 0.01 to 1 | 0.01 to 1 | 0.01 to 1 |
| O=C(NCC(O)CN1CCc2ccccc2C1)c1cn2cc(-c3ccccc3)ccc2n1 (stereo not drawn) [Example 10, N-(3-(3,4-dihydroisoquinolin-2(1H)-yl)-2-hydroxypropyl)-6-phenylimidazo[1,2-a]pyridine-2-carboxamide] | 0.01 to 1 | 0.01 to 1 | 0.01 to 1 | 0.01 to 1 | 0.01 to 1 |
| CCn1cc(-c2ccc3nc(C(=O)NC[C@H](O)CN4CCc5ccccc5C4)cn3c2)cn1 [Example 4, (S)—N-(3-(3,4-dihydroisoquinolin-2(1H)-yl)-2-hydroxypropyl)-6-(1-ethyl-1H-pyrazol-4-yl)imidazo [1,2-a]pyridine-2-carboxamide] | 0.01 to 1 | 0.01 to 1 | 0.01 to 1 | 0.01 to 1 | 0.01 to 1 |
| CC(=O)Nc1ccc2nc(C(=O)NC[C@H](O)CN3CCc4ccccc4C3)cn2c1 [Example 39, (S)-6-acetamido-N-(3-(3,4-dihydroisoquinolin-2(1H)-yl)-2-hydroxypropyl)imidazo[1,2-a]pyridine-2-carboxamide] | 1 to 5 |  |  | 0.01 to 1 | 0.01 to 1 |
| CC1CCn2cc(C(=O)NCC(O)CN3CCc4ccccc4C3)nc2C1 (stereo not drawn) [Example 103, N-(3-(3,4-dihydroisoquinolin-2(1H)-yl)-2-hydroxypropyl)-7-methyl-5,6,7,8-tetrahydroimidazo[1,2-a]pyridine-2-carboxamide] | 0.01 to 1 |  |  | 0.01 to 1 | 1 to 5 |
| O=C(NCC(O)CN1CCc2ccccc2C1)c1cn2cc(-c3ccc(F)cc3)ccc2n1 (stereo not drawn) [Example 11, N-(3-(3,4-dihydroisoquinolin-2(1H)-yl)-2-hydroxypropyl)-6-(4-fluorophenyl) imidazo[1,2-a]pyridine-2-carboxamide] | 0.01 to 1 | 0.01 to 1 | 0.01 to 1 | 0.01 to 1 | 0.01 to 1 |
| Cn1cc(-c2ccc3nc(C(=O)NC[C@H](O)CN4CCc5ccccc5C4)cn3c2)nn1 [Example 36, (S)—N-(3-(3,4-dihydroisoquinolin-2(1H)-yl)-2-hydroxypropyl)-6-(1-methyl-1H-1,2,3-triazol-4-yl)imidazo[1,2-a]pyridine-2-carboxamide] | 0.01 to 1 | 0.01 to 1 | 0.01 to 1 | 0.01 to 1 | 0.01 to 1 |
| O=C(NC[C@H](O)CN1CCc2ccccc2C1)c1cn2cc(N3CCC(F)C3)ncc2n1 (stereo partly drawn) [Example 73, N—((S)-3-(3,4-dihydroisoquinolin-2(1H)-yl)-2-hydroxypropyl)-6-(3-fluoropyrrolidin-1-yl)imidazo[1,2-a]pyrazine-2-carboxamide] | 1 to 5 |  |  | 0.01 to 1 | 1 to 5 |
| O=C(NC(CO)CCN1CCc2ccccc2C1)c1cn2cc(C(F)(F)F)ccc2n1 (stereo not drawn) [Example 100, N-(4-(3,4-dihydroisoquinolin-2(1H)-yl)-1-hydroxybutan-2-yl)-6-(trifluoromethyl)imidazo[1,2-a]pyridine-2-carboxamide] | 1 to 5 |  |  | 0.01 to 1 | 1 to 5 |
| O=C(NC[C@H](O)CN1CCc2ccccc2C1)c1cn2c(n1)CCC(C(F)(F)F)C2 (stereo partly drawn) [Example 114, N—((S)-3-(3,4-dihydroisoquinolin-2(1H)-yl)-2-hydroxypropyl)-6-(trifluoromethyl)-5,6,7,8-tetrahydroimidazo[1,2-a]pyridine-2-carboxamide] | 0.01 to 1 |  |  | 0.01 to 1 | 1 to 5 |
| CC(C)C1CCc2nc(C(=O)NC[C@H](O)CN3CCc4ccccc4C3)cn2C1 (stereo partly drawn) [Example 108, N—((S)-3-(3,4-dihydroisoquinolin-2(1H)-yl)-2-hydroxypropyl)-6-isopropyl-5,6,7,8-tetrahydroimidazo[1,2-a]pyridine-2-carboxamide] | 0.01 to 1 |  |  | 0.01 to 1 | 1 to 5 |
| O=C(NC[C@H](O)CN1CCc2ccccc2C1)c1cn2c(n1)CC[C@@H](C(F)(F)F)C2 [Example 121A, (R)—N—((S)-3-(3,4-dihydroisoquinolin-2(1H)-yl)-2-hydroxypropyl)-6-(trifluoromethyl)-5,6,7,8-tetrahydroimidazo[1,2-a]pyridine-2-carboxamide] | 0.01 to 1 | 0.01 to 1 | 0.01 to 1 | 0.01 to 1 | 0.01 to 1 |
| Cc1nc(-c2ccc3nc(C(=O)NC[C@H](O)CN4CCc5ccccc5C4)cn3c2)no1 [Example 6, (S)—N-(3-(3,4-dihydroisoquinolin-2(1H)-yl)-2-hydroxypropyl)-6-(5-methyl-1,2,4-oxadiazol-3-yl)imidazo[1,2-a]pyridine-2-carboxamide] | 0.01 to 1 | 0.01 to 1 | 0.01 to 1 | 0.01 to 1 | 0.01 to 1 |
| CC(C)Cn1cc(-c2ccc3nc(C(=O)NCC(O)CN4CCc5ccccc5C4)cn3c2)cn1 (stereo in doubt) [Example 18, (S)—N-(3-(3,4-dihydroisoquinolin-2(1H)-yl)-2-hydroxypropyl)-6-(1-isobutyl-1H-pyrazol-4-yl)imidazo[1,2-a]pyridine-2-carboxamide] | 0.01 to 1 | 0.01 to 1 | 0.01 to 1 | 0.01 to 1 | 0.01 to 1 |
